Experimental data as given in US9902725B2, “Heterocyclic derivatives as RORgamma modulators” (GENFIT, priority 2014, dated 2018).

What was measured:
human RORγt [1] = molecular target: T1, human RORγt (Homo sapiens, UniProt P51449); experiment: RORE luciferase/RORγt transactivation assay; format: cell-based; parameters: expressed in transfected cells; details: COS-7 cells transfected with IL-17 promoter luciferase reporter and RORγt plasmid, 20 h
T1 sequence (P51449 1-497 isoform P51449-2): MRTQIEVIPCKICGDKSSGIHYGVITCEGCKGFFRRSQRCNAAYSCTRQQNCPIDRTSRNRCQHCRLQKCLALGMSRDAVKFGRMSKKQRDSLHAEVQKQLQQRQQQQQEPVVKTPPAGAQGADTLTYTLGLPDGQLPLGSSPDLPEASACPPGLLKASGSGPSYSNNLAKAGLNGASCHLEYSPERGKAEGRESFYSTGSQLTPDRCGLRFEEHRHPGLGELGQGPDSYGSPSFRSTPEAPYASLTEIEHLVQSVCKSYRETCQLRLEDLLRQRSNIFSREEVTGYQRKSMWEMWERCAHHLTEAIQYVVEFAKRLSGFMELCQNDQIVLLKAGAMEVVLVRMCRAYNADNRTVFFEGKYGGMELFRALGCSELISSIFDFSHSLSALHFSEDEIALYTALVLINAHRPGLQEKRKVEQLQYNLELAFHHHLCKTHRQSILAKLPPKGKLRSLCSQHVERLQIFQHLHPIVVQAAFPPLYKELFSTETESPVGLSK
Source text: It is well known that RORγ binds to a conserved non-coding sequence (CNS) enhancer element in the IL-17 promoter. Accordingly, we have used in this assay a luciferase reporter gene construct that contains the human IL-17 promoter fragment with RORγ-specific CNS enhancer element and a RORγt overexpressing plasmid, to indirectly assess the effect of compounds on RORγ activity. Inhibition of RORγ activity by test compounds will result in a decrease in luciferase activity in COS-7 cells transfected with the reporter construct.
Monkey Kidney COS-7 cell line are maintained in a standard culture medium Dulbecco's modified Eagle's minimal (DMEM) medium supplemented with 10% fetal calf serum, 1% sodium pyruvate, 1% essential amino acids and 1% antibiotics at 37° C. in a humidified atmosphere of 5% CO2 and 95% air. Culture medium was changed every 2 days.
The 4.3 Kb human IL-17 promoter containing the RORγ-specific CNS enhancer element was PCR amplified from human genomic DNA and cloned into a pGL3-TKLuc2Cp reporter plasmid. To overexpress RORγt, the full-length cDNA of human RORγt (identical to published sequence NM 001001523) was cloned without any restriction into pcdna3.1DV5-His-topo to generate the RORγt overexpression plasmid “RORγt_FL_h_pcDNA3.1DV5-His-TOPO_1”.
The luciferase reporter plasmid and the RORγt overexpression plasmid were transfected into COS-7 cell line using 4 μLJetPEITM/μg of DNA. Briefly, 150 ng of DNA (ration ½ between RORE-Tk Luc2Cp and cDNA RORγt or the empty vector for the negative control) was served to transfect adherent COS-7 cells in a […] culture flask, in complete medium (see cos-7 cell line culture). Cells were incubated for 24 hours in a humidified atmosphere of 5% CO2 and 95% air
Cells were then detached (using trypsin) and washed by centrifugation at 300 g for 10 minutes. Cell pellet was resuspended in serum free/phenol red free DMEM and seeded in 384 well plates at a density of 10000 cells/well and then incubated for 4 h at 37° C.
Compounds were dissolved in 100% DMSO to obtain 10 mM stock solutions. For each compound, test concentrations were diluted in serum free/phenol red free DMEM using the Genesis Freedom 200™ (TECAN) and added to the cells to obtain a 0.3% DMSO final concentration (in a final volume of 40 μL per well). T091317 was used as reference compound. Cells were incubated in presence of compounds for an additional 20 h at 37° C. in a humidified atmosphere of 5% CO2 and 95% air
The luciferase activity was then measured with 40 μL/well steady-Glo Luciferase assay system (Promega, Madison, Wis.) and after incubation at room temperature for 30 minutes. The luminescence was estimated using the Ultra384 reader (TECAN). Data were collected and analyzed using GraphPad Prism software (GraphPad Software V5.02, San Diego Calif. USA). IC50 in μM and Emax in % were reported for each compound.

[2] = molecular target: T2, RORγt ligand-binding domain (RORγt-LBD) (Homo sapiens, UniProt P51449); experiment: Time-resolved FRET (TR-FRET) RORγt coactivator assay; format: biochemical; details: GST-RORγ-LBD, biotinylated RIP140 peptide, coactivator displacement
T2 construct: 20 nM recombinantly expressed RORγ-LBD fused to GST
T2 sequence (P51449 269-508 limits assumed): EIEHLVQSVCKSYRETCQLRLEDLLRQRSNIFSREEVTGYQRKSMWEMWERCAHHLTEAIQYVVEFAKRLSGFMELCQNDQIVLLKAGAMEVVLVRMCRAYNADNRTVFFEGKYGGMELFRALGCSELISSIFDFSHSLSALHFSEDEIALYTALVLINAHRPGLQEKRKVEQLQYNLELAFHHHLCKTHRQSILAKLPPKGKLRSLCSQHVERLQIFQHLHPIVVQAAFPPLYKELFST

human RORγt [3] = molecular target: T1, human RORγt; experiment: IL-17 secretion from EL4 murine lymphoma overexpressing human RORγt; format: cell-based; parameters: expressed in transfected cells; host or cells: EL-4 murine lymphoma; details: IL-17 secretion inhibition, PMA and ionomycin stimulation, 24 h
Description: Murine EL-4 lymphoma cell line overexpressing human RORγt was used in this functional assay to assess compound ability to inhibit IL-17 cytokine secretion.
EL-4 cells are maintained in a standard culture medium RPMI supplemented with 10% fetal calf serum, 1% sodium pyruvate, 1% essential amino acids and 1% antibiotics at 37° C. in a humidified atmosphere of 5% CO2 and 95% air. Culture medium was changed every 2 days. EL4 cells were transfected with a plasmid encoding hRORγt (sequence identical to published sequence NM 001001523). […] Briefly, 1 μg of DNA/1 million cells was served to transfect EL-4 cells. Cell/DNA suspension was transferred into certified cuvette and the electroporation of RORγt plasmid was carried out using appropriate Nucleofector® program.
Cells were seeded in 96 well plates at a density of 150000 cells/well then treated with compounds of this invention at indicated concentrations and incubated for 24 hours at 37° C. in a humidified atmosphere of 5% CO2 and 95% air. EL-4 cells were pretreated with test compounds (RORγ modulators) and stimulated with PMA (10 ng/mL) and ionomycin (1 μM final concentration) in the presence of test compound concentrations for additional 24 h at 37° C. in a humidified atmosphere of 5% CO2 and 95% air. Subsequently, supernatants were collected (after centrifugation at 300 g for 10 minutes) to determine the concentrations of IL-17 by HTRF (CisBio, France) or ELISA (R&D Systems Europe) according to the manufacturer's protocols.

IC50 (human RORγt [1]) [nM] | IC50 [2] [nM] | IC50 (human RORγt [3]) [nM] | Structure (SMILES)
< 1000 | < 1000 |  | Cc1ccc(C(NC(=O)Cc2ccc3[nH]cc(CCC(=O)O)c3c2)c2ccc(C)o2)c(N2CCCCC2)c1 (stereo not shown) [compound 268, 3-{5-[({[4-methyl-2-(piperidin-1-yl)phenyl](5-methylfuran-2-yl)methyl}carbamoyl)methyl]-1H-indol-3-yl}propanoic acid]
 | 1000 to 10000 | 1000 to 10000 | CC(C)(C)OC(=O)CCc1c[nH]c2ccc(CC(=O)NC(c3ccccc3)c3ccc(O)cc3N3CCCCC3)cc12 (stereo not shown) [compound 264, tert-butyl 3-{5-[({[4-hydroxy-2-(piperidin-1-yl)phenyl](phenyl)methyl}carbamoyl)methyl]-1H-indol-3-yl}propanoate]
 | < 1000 | 1000 to 10000 | Cc1ccc(C(NC(=O)Cc2ccc3[nH]cc(CCC(=O)OC(C)(C)C)c3c2)c2ccccc2)c(N2CCCCC2)c1 (stereo not shown) [Cpd. 76, tert-butyl 3-{5-[({[4-methyl-2-(piperidin-1-yl)phenyl](phenyl)methyl}carbamoyl)methyl]-1H-indol-3-yl}propanoate]
 | < 1000 | < 1000 | COc1ccc(C(NC(=O)Cc2ccc3[nH]cc(CCC(=O)OC(C)(C)C)c3c2)c2ccccc2)c(N2CCCC2)c1 (stereo not shown) [Cpd. 108, tert-butyl 3-{5-[({[4-methoxy-2-(pyrrolidin-1-yl)phenyl](phenyl)methyl}carbamoyl)methyl]-1H-indol-3-yl}propanoate]
 | < 1000 | < 1000 | COC(=O)Cc1c[nH]c2ccc(CC(=O)NC(c3ccccc3)c3ccc(C)cc3N3CCCCC3)cc12 (stereo not shown) [Cpd. 86, methyl 2-{5-[({[4-methyl-2-(piperidin-1-yl)phenyl](phenyl)methyl}carbamoyl)methyl]-1H-indol-3-yl}acetate]
 | < 1000 | 1000 to 10000 | Cc1ccc(C(NC(=O)Cc2ccc3[nH]cc(CC(=O)O)c3c2)c2ccccc2)c(N2CCCCC2)c1 (stereo not shown) [compound 87, 2-{5-[({[4-methyl-2-(piperidin-1-yl)phenyl](phenyl)methyl}carbamoyl)methyl]-1H-indol-3-yl}acetic acid]
 | < 1000 | 1000 to 10000 | CC(C)CC(NC(=O)Cc1ccc2[nH]cc(CCC(=O)O)c2c1)c1ccccc1N1CCCCCC1 (stereo not shown) [compound 198, 3-{5-[({1-[2-(azepan-1-yl)phenyl]-3-methylbutyl}carbamoyl)methyl]-1H-indol-3-yl}propanoic acid]

Continued, compound first:

Structure (SMILES) | IC50 (human RORγt [1]) [nM] | IC50 [2] [nM] | IC50 (human RORγt [3]) [nM]
Cc1ccc(C(NC(=O)Cc2ccc3[nH]cc(CCC(=O)O)c3c2)c2ccccc2)c(Cl)c1 (stereo not shown) [Cpd. 7, 3-[5-({[(2-chloro-4-methylphenyl)(phenyl)methyl]carbamoyl}methyl)-1H-indol-3-yl]propanoic acid] | 1000 to 10000 | < 1000 | 
Cc1ccc(C(NC(=O)Cc2ccc3[nH]cc(CCC(=O)O)c3c2)c2cccnc2)c(C)c1 (stereo not shown) [compound 27, 3-[5-({[(2,4-dimethylphenyl)(pyridin-3-yl)methyl]carbamoyl}methyl)-1H-indol-3-yl]propanoic acid] | > 10000 | 1000 to 10000 | 
Cc1ccc(C(NC(=O)Cc2ccc3[nH]cc(CCC(=O)O)c3c2)c2ccccc2)c(NC(C)C)c1 (stereo not shown) [compound 126, 3-(5-{[({4-methyl-2-[(propan-2-yl)amino]phenyl}(phenyl)methyl)carbamoyl]methyl}-1H-indol-3-yl)propanoic acid] |  | < 1000 | 1000 to 10000
Cc1ccc(C(NC(=O)Cc2ccc3[nH]cc(CCC(=O)O)c3c2)c2ccccc2)c(N2CC=CC2)c1 (stereo not shown) [compound 200, 3-{5-[({[2-(2,5-dihydro-1H-pyrrol-1-yl)-4-methylphenyl](phenyl)methyl}carbamoyl)methyl]-1H-indol-3-yl}propanoic acid] |  | < 1000 | 1000 to 10000
O=C(O)CCc1c[nH]c2ccc(CC(=O)NC(c3ccccc3)c3cc(Cl)ccc3N3CCCCC3)cc12 (stereo not shown) [compound 62, 3-{5-[({[5-chloro-2-(piperidin-1-yl)phenyl](phenyl)methyl}carbamoyl)methyl]-1H-indol-3-yl}propanoic acid] |  | < 1000 | 1000 to 10000
CC(C)Oc1ccc(C(NC(=O)Cc2ccc3[nH]cc(CCC(=O)O)c3c2)c2ccccc2)c(N2CCCCC2)c1 (stereo not shown) [compound 152, 3-{5-[({phenyl[2-(piperidin-1-yl)-4-(propan-2-yloxy)phenyl]methyl}carbamoyl)methyl]-1H-indol-3-yl}propanoic acid] |  | < 1000 | 10000 to 30000
Cc1ccc(C(NC(=O)Cc2ccc3[nH]cc(CCC(=O)O)c3c2)c2ccc(C)s2)c(N2CCCCC2)c1 (stereo not shown) [compound 138, 3-{5-[({[4-methyl-2-(piperidin-1-yl)phenyl](5-methylthiophen-2-yl)methyl}carbamoyl)methyl]-1H-indol-3-yl}propanoic acid] |  | < 1000 | 1000 to 10000
COc1ccc(C(NC(=O)Cc2ccc3[nH]cc(CCC(=O)O)c3c2)c2ccccc2)c(N2CCCCCC2)c1 (stereo not shown) [compound 142, 3-{5-[({[2-(azepan-1-yl)-4-methoxyphenyl](phenyl)methyl}carbamoyl)methyl]-1H-indol-3-yl}propanoic acid] |  | < 1000 | 1000 to 10000
CCOc1ccc(C(NC(=O)Cc2ccc3[nH]cc(CCC(=O)O)c3c2)c2ccccc2)c(N2CCCCC2)c1 (stereo not shown) [compound 150, 3-{5-[({[4-ethoxy-2-(piperidin-1-yl)phenyl](phenyl)methyl}carbamoyl)methyl]-1H-indol-3-yl}propanoic acid] |  | < 1000 | 1000 to 10000
CC(C)(C)OC(=O)CCc1c[nH]c2ccc(CC(=O)NC(c3ccccc3)c3ccc(C(F)(F)F)cc3N3CCCC3)cc12 (stereo not shown) [Cpd. 47, tert-butyl 3-{5-[({phenyl[2-(pyrrolidin-1-yl)-4-(trifluoromethyl)phenyl]methyl}carbamoyl)methyl]-1H-indol-3-yl}propanoate] |  | 1000 to 10000 | 1000 to 10000
